Laboratory results: patent US12544355B2, “Use of monascinol in preparation of fat-reducing product” (TIANJIN UNIVERSITY OF SCIENCE AND TECHNOLOGY, priority 2019, dated 2026)
Marks after values point to notes of the source that are not given here.

Columns and labels:
[1] = tested on: HepG2 cells modeled with oleic acid; assay: Cytotoxicity (MTT) on HepG2 cells modeled with oleic acid; format: cell-based; settings: 24 h, 0.3 mmol/L oleic acid
Description: (§1) HepG2 cells in good growth condition were inoculated in a 6-well plate at 2*10^5 cells/mL, 1 mL per well. When cell adhesion rate reached 80%-90%, the medium was discarded. A blank group and a model group were set, where a complete medium was added to the blank group, 0.3 mmol/L oleic acid induction solution diluted with a complete medium was added to the model group, at 2 mL per well; after 24 hours of culture, the accumulation of lipid drops in the cells was observed by oil red 0 staining.
• a. HepG2 cells in good growth condition were inoculated in a 96-well plate at 5*10^4 cells/mL, 100 μL per well. When the cell adhesion rate reached 80%-90%, the medium was discarded. • b. MS and MC were each dissolved in dimethyl sulfoxide (DMSO) to prepare a 5 mg/mL of mother liquid, and the mother liquid was stored at −20° C. The 5 mg/mL of mother liquid was diluted with a complete medium containing 0.3 mmol/L of oleic acid to obtain MS sample concentrations or MC sample concentrations (2, 4, 6, 8, 10, 12 μg/mL) required for the experiment, ensuring that a final concentration of DMSO in each sample is 0.5%. • c. […]
After 24 h, the survival rate of HepG2 cells in each group was detected based on a MTT experiment method. • d. results are shown in FIG. 2.

[2] = tested on: HepG2 cells modeled with oleic acid; assay: Triglyceride content in HepG2 cells modeled with oleic acid (triglyceride kit); format: cell-based; settings: 24 h, 0.3 mmol/L oleic acid; for reduce the TG content in cells by: Example 3, 2 μg/mL
Description: • a. HepG2 cells in good growth condition were inoculated in a 6-well plate at 2*10^5 cells/mL, 1 mL per well, cultured for 12 h, and after the cells adhered to the wall, the medium was discarded. • b. after the medium was discarded, a blank group, a modeling group and a dosing group were set. • Blank control group: added with 2 mL of a complete medium per well; • Oleic acid modeling group: added with 2 mL of a complete medium containing 0.3 mmol/L of oleic acid per well; • MC low dose group: added with 2 mL of a complete medium containing 0.3 mmol/L of oleic acid and 2 μg/mL of Monascinol per well; • MC middle dose group: added with 2 mL of a complete medium containing 0.3 mmol/L of oleic acid and 4 μg/mL of Monascinol per well; • MC high dose group: added with 2 mL of a complete medium containing 0.3 mmol/L of oleic acid and 8 μg/mL of Monascinol per well; • After completing the administration, the cells of each group were cultured for 24 hours and then collected, a triglyceride kit (Beijing Applygen Technologies Inc.) was utilized to measure the content of triglyceride in HepG2 cells of each group. • c. results are shown in FIG. 3. Different letters indicate significant differences from the blank group, P<0.01.
Firstly, normal HepG2 cells were obtained, and HepG2 cells modeled with oleic acid were obtained according to the method in Example 1 (a concentration of oleic acid was 0.3 mmol/L).
(§2) On day 1, blank control group: normally cultured HepG2 cells without treatment; oleic acid modeling group (the concentration of oleic acid is 0.3 mmol/L): normally culture HepG2 cells modeled with oleic acid without treatment; MC group: HepG2 cells modeled with oleic acid were administered with 2 μg/mL of Monascinol, i.e., MC; MS group: HepG2 cells modeled with oleic acid were administered with 2 μg/mL of Monascin (MS).
After completing the administration, the cells of each group were cultured for 24 hours and then collected, a triglyceride kit (Beijing Applygen Technologies Inc.) was utilized to measure the content of triglyceride in HepG2 cells of each group, results are shown in FIG. 4.

[3] = tested on: HepG2 cells modeled with oleic acid; assay: Oil red O staining of lipid drops in HepG2 cells modeled with oleic acid; format: cell-based; settings: 2 μg/mL, inverted microscope ×400
Description: as §1, §2
Morphological observation was further carried out by oil red 0 staining, and the results are shown in FIGS. 5A-5C (inverted microscope×400), FIG. 5A is a diagram of lipid accumulation in HepG2 cells of an oleic acid modeling group; FIG. 5B is a diagram of lipid accumulation in HepG2 cells of an MS group; FIG. 5C is a diagram of lipid accumulation in HepG2 cells of an MC group. […] This is consistent with the test result of TG.

[4] = biological target: T1, pancrelipase (Type II, derived from a porcine pancreas) (Sus scrofa, UniProt P00591); assay: Inhibitory activity on pancrelipase, 4-MUO substrate, fluorescence detection; format: biochemical; settings: 4-MUO 0.1 mM, lipase 1 mg/mL, 30 mins at 25° C.
T1 construct: pancrelipase (Type II, derived from a porcine pancreas); from tissue; host or cells: porcine pancreas
T1 sequence (P00591 1-450): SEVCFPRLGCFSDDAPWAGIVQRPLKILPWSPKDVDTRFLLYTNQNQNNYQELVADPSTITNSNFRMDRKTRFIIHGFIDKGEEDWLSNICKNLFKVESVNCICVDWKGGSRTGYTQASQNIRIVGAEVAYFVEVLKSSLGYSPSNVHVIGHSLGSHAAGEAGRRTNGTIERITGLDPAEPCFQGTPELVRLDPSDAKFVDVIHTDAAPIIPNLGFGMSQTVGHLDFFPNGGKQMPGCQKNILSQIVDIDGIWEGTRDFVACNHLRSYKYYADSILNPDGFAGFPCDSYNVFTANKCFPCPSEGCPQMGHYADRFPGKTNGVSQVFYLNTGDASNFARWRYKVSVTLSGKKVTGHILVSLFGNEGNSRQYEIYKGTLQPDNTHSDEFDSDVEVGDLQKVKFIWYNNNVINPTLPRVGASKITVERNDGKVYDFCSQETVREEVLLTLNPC
Description: In an experiment, 4-methylumbelliferyl oleate (4-MUO) was used as a substrate and a fluorescence detection method was used to evaluate the inhibitory activity of MC on pancrelipase (Type II, derived from a porcine pancreas).
The following groups were set (see also Table 1): • Blank group: no MC sample, only substrate, pancrelipase and Tris-HCL buffer; • Blank background group: no MC sample and pancrelipase, only substrate and Tris-HCL buffer; • Sample background group: no pancrelipase, only MC sample, substrate and Tris-HCL buffer; • Sample group: no Tris-HCL buffer, only MC sample, substrate and pancrelipase.
The inhibition rate was calculated according to the following formula: Inhibition rate (%)=[(A1−A2)−(A3−A4)]/(A1−A2)×100
A1: Fluorescence value in blank group; A2: Fluorescence value in blank background group; A3: Fluorescence value in sample group; and A4: Fluorescence value in sample background group.
Three parallel experiments were set for each group, in which the concentration of 4-MUO is 0.1 mM, and the MC samples were dissolved in DMSO (set 6 different concentrations: 5, 10, 20, 40, 80 and 160 μg/mL), the concentration of the lipase solution is 1 mg/mL. […] Therefore, the product 4-methylumbelliferone was determined under conditions of an excitation wavelength of 360±40 nm and an emission wavelength 460±40 nm. […]

pancrelipase = biological target: T2, pancrelipase (Sus scrofa, UniProt P00591); assay: Type of inhibition on pancrelipase (order of addition, Lineweaver-Burk double reciprocal plot); format: biochemical, porcine; settings: 160 μg/mL MC, lipase 1 mg/mL
T2 construct: pancrelipase (Type II, derived from a porcine pancreas); from tissue; host or cells: porcine pancreas
T2 sequence (P00591 1-450): T1 sequence (P00591 1-450)
Description: According to different forms and characteristics of binding between enzymes and inhibitors, the inhibitions can be divided into two types: reversible inhibition and irreversible inhibition. The irreversible inhibition usually binds to a group in an enzyme protein by a relatively strong covalent bond to inactivate an enzyme. […] In this part of experiment, MS and AK were used as controls, and the type of inhibition of MC was determined by changing the order of adding reactants, the intervention concentrations of the three pigment inhibitors were all 80 μg/mL. […]
The type of inhibition of MC on pancrelipase was determined based on the results of Lineweaver-burk double reciprocal plot method as follows.
A basic process of experiment of drawing the Lineweaver-Burk curve was: under the condition of a determined lipase concentration (1 mg/mL), the enzymatic reaction rates were measured with a series of different substrate concentrations. […]

[5] = tested on: Golden Syrian hamsters fed with high-fat diet; assay: High-fat diet hamster experiment, 10 weeks gavage; format: in vivo, Golden Syrian hamster
Description: 24 male Golden Syrian hamsters (hamsters for short) used in the animal experiment were purchased from Beijing Vital River Laboratory Animal Technology Co., Ltd., weighing 110-120 g, and aged 8 weeks.
After acclimation for a period of time, they were randomly divided into 3 groups, each with 8 animals, and the grouping and experiments were carried out as follows:
Every day starting from Day 1: • Normal group (NOR): take normal-chow diet freely, and gavage the same amount of CMC-Na solution as the MC group; • High fat group (HFD): take high-fat chow diet freely, and gavage the same amount of CMC-Na solution as the MC group; • MC group: take high-fat chow diet freely, and gavage MC (dissolved in CMC-Na solution) at a dose of 20 mg/kg body weight.
The weight and food intake of the hamsters were measured every week. After 10 weeks, tissue samples or serum samples were collected and the following analysis was performed.
TC and TG in the liver were extracted based on the Folch method, the TC and TG detection kits produced by Nanjing Jiancheng Bioengineering Institute was used to detect the contents of TC and TG in liver tissue according to the method provided in the instructions.
Cobas8000 E602 full-automatic biochemical analyzer (Roche Diagnostics Co., Ltd., Germany) was used to measure TC and TG in serum of collected serum samples.

[6] = high-fat diet, gavage 20 mg/kg body weight daily
[7] = histology, 100× and 400× light microscope, 20 mg/kg

Row | SMILES | survival rate of cells ([1]; administration concentration 10 μg/mL or more) | reduce the TG content in cells by [2] | survival rate of cells ([1]; administration concentration 12 μg/mL) | TG content in the cells decreased by (vs modeling group) ([2]; Example 2, 2 μg/mL) | TG content in the cells decreased by (vs modeling group) ([2]; Example 2, 4 μg/mL) | TG content in the cells decreased by (vs modeling group) ([2]; Example 2, 8 μg/mL) | lipid drops in the cells, oil red O staining vs oleic acid modeling group [3] | IC50 [4] | type of inhibition on pancrelipase (pancrelipase) | Fat index (weight of perirenal and periepididymal fat pad/weight of body) [5, 6] | Liver tissue TC [5, 6] | Liver tissue TG [5, 6] | Liver weight [5, 6] | Serum TC [5, 6] | Serum TG [5, 6] | Weight gain [5, 6] | Weight of periepididymal fat pad [5, 6] | Weight of perirenal fat pad [5, 6] | adipose tissue sections: volume of periepididymal and perirenal adipose cells vs HFD group [5, 7] | liver tissue sections: lipid accumulation in liver cells vs HFD group [5, 7]
1 | C/C=C/C1=CC2=C(CO1)C(=O)[C@]1(C)OC(=O)[C@H](C(=O)CCCCC)[C@H]1C2 [MS, Monascin] | 36.7% | 26.3% |  |  |  |  |  |  |  |  |  |  |  |  |  |  |  |  |  | 
2 | C/C=C/C1=CC2=C(CO1)C[C@]1(C)OC(=O)[C@H](C(O)CCCCC)[C@H]1C2 (stereo partly drawn) [MC, Monascinol] |  | 33.3% | 66.7% | 38.9% | 34.6% | 51.3% | reduce lipid drops in the cells and lighten color | 219 µM | anti-competitive inhibition | 3.56 ± 0.26^a | 20.66 ± 0.58^c mg/g | 9.62 ± 0.34^a mg/g | 4.21 ± 0.17^a g | 4.73 ± 0.21^b mmol/L | 2.97 ± 0.39^c mmol/L | 22.33 ± 4.12^c g | 2.99 ± 0.28^a g | 1.62 ± 0.19^a g | significantly smaller volume than that in the HFD group | significantly reduced
